Structures can show the parent of a compound that is named as a salt.
System: ESR1:wild-type, ESR1:D538G and ESR1:Y537S CDK4/6 inhibitor sensitive, palbociclib^R, ribociclib^R and abemaciclib^R cell lines
Assay: Colony formation assay
Format: cell-based
Conditions: elacestrant 300 nM; 2-5 wks; CDK4/6 inhibitor-resistant cell lines (FIGS. 8A-8C); dihydrochloride
Experimental: HCC1428-LTED-CDK4/6^R cells, MCF7-Y537S-CDK4/6^R, and MCF7-D538G-CDK4/6^R were generated by exposing HCC1428-LTED cells to increasing concentrations of the appropriate CDK4/6i with current maintenance of these cells at 500 nM of palbociclib and ribociclib for Palbo^R and Ribo^R cells respectively, and 250 nM of abemaciclib for Abema^R cells.
Cells were plated at a density of 1000-10000 cells/well and allowed to grow for 2-5 wks depending on the cell line. Treatments were performed in triplicate; media and compound was replaced weekly. At the end of treatment, cells were fixed in paraformaldehyde and stained with crystal violet for visualization.
In FIG. 8A, the colony forming assay pictures in the top row visualize the growth for the control ESR1:wild-type CDK4/6 inhibitor sensitive, ESR1:wild-type palbociclib^R, ESR1:wild-type ribociclib^R, and ESR1:wild-type abemaciclib^R cell lines while the pictures in the bottom row visualize the cell growth for the control ESR1:wild-type CDK4/6 inhibitor sensitive, ESR1:wild-type palbociclib^R, ESR1:wild-type ribociclib^R, and ESR1:wild-type abemaciclib^R cell lines after being treated with elacestrant (300 nM). […]

CCNCCc1ccc(CN(CC)c2cc(OC)ccc2[C@@H]2CCc3cc(O)ccc3C2)cc1 [elacestrant, (6R)-6-(2-(N-(4-(2-(ethylamino)ethyl)benzyl)-N-ethylamino)-4-methoxyphenyl)-5,6,7,8-tetrahydronaphthalen-2-ol dihydrochloride]
long-term growth inhibition (colony formation): dose-dependent long-term growth inhibition

From patent publication US20210330612A1, “METHODS FOR TREATING CANCER RESISTANT TO CDK4/6 INHIBITORS” (Radius Pharmaceuticals, Inc., priority 2018, published 2021)
